The values that follow come from patent US20140073637A1, “AMINO-SUBSTITUTED-ALKYLOXY-BENZO[E]PYRIDO[4,3-B]INDOLE DERIVATIVES AS NEW POTENT KINASE INHIBITORS” (INSTITUT CURIE, priority 2011, published 2014).

What is called IC50 is the concentration that inhibits the measured activity by half. As usually defined, the remaining activity is the signal under treatment as a percentage of the control signal.

One assay relates to 121 kinases. As to the kind of experiment: Kinase profiling on a set of 121 kinases. Format: biochemical. Particulars: kinases presenting the highest inhibitions; lists not exhaustive. How it is done: FIG. 1A: The potential inhibition of C14 was tested against 121 kinases, in vitro, at the concentration of 1 μM. The kinase activities, in the presence of C14, are represented, each kinase being represented by a vertical bar. Only 18 kinases have less than 30% activity in the presence of C14.
(§1) The specificity of C14 was tested, in vitro, against 121 kinases representative of the kinome. Assays run in duplicate, at the concentration of 1 μM, were performed by MRC (Dundee, UK). Results are represented in FIG. 1. The main targets are highlighted in FIG. 1B.
(§2) The profiling was performed at the MRC (Dundee University), in duplicate, on a set of 121 kinases. The panel is representative of the major different classes of kinases. Compounds were used at the concentration of 1 μM. In vitro, IC50 were determined on recombinant kinases by Reaction biology Corp (USA).

Assay [1] deals with T1, Aurora B (Homo sapiens, UniProt Q96GD4). As to the kind of experiment: Aurora B inhibition in cells: Histone H3 Ser10 phosphorylation by western blotting and immunofluorescence. Format: cell-based. Also on record: endogenous in cells; host or cells: U2OS (human osteosarcoma); HeLa also used for the maleate salts. The following applies: U2OS mitotic extracts; 1 μM overnight; western blotting (FIG. 3). Here is the method:
Actin is used as control of quantity. Cells were incubated overnight in the presence of either C1, or C2 or CH21 or C14 or DMSO(C: control). All compounds were tested at 1 μM. Proteins were detected by western blotting.
Cells were incubated with the different molecules and Aurora B inhibition is estimated by western blotting (WB) and immuno fluorescent experiments. Histone H3 phosphorylated on Ser10 is used as a marker of Aurora B kinase activity and actin as an internal control. Each WB signal is compared to the control in the absence of compound. The efficiency estimated by WB is indicated by +++: very efficient inhibition to −: no inhibition. Immunofluorescent labelling of a mitotic cell by Histone H3 illustrates Aurora B kinase activity. However immunofluorescence is less sensitive than WB. Active molecules are underlined by a square and the intensity of the line indicates the efficiency of inhibition.
FIG. 10A: Immunofluorescence with phospho-Ser10-Histone H3 antibodies. Either the percentage of positive phospho-Ser10-Histone H3 is indicated or a representative mitosis shown. […] Immunofluorescent assays were realized with a specific phospho-antibody and mitotic U2OS cells are recognized by their DNA content stained with Hoechst. On the right, a representative cell or the percentage of H3-S10-P labelled mitosis.
FIG. 10B: Immunoblotting analysis of histone H3 phosphorylation. U2OS cells were incubated overnight with Nocodazole (50 nM) in the presence of either DMSO (Co) or Compounds (1 μM). Cells were then collected and lyzed. Identical amounts of the lyzed cell samples were run on 18% acrylamide gel containing SDS.
FIGS. 11B and 11C: Immunoblotting analysis of histone H3 phosphorylation. U2OS and HeLa cells were incubated overnight with Nocodazole (50 nM) in the presence of either DMSO (Co) or Compounds (1 μM). Cells were then collected and lyzed. Identical amounts of the lyzed cell samples were run on 18% acrylamide gel containing SDS.
Cells were incubated with the different molecules and Aurora B inhibition is estimated by western blotting and immunofluorescent experiments. Histone H3 phosphorylated on Ser10 is used as a marker of Aurora B kinase activity and actin as an internal control. Results are represented in FIGS. 4 and 10 and Table 3.
Cells were treated by compounds, harvested and lyzed in 9M urea then supplemented with Laemmli sample buffer. Cell extracts were subjected to SDS-PAGE and transferred to nitrocellulose filter (GE Healthcare). After blocking with 5% non-fat milk in PBS for at least 1 hour, the membranes were incubated with the primary antibodies. The following antibodies were used: phospho-Histone H3 Ser10 (1:2000, Upstate Biotechnology), anti LAST1 (Cell signalling), anti Aurora B (epitomics) and anti alpha-tubulin (Sigma) Anti-rabbit horseradish peroxidase (1:5000, GE Healthcare) was used as secondary antibodies. Bands were visualized by ECL technique (Amersham Bioscience).
Cells were seeded on glass coverslips and treated by compounds (1 μM) overnight. After treatment, cells were fixed in 4% formaldhehyde at 37° C. for 15 minutes, then permeabilized for 5 minutes with Triton X-100 in PBS.

The test system of a further assay is HeLa cells. Particulars: previously reported in Hoang et al, 2009, indicated for comparison, read-out: IC50 (in nM), antiproliferative assay; cited from earlier work.
The next assay deals with T2, CHK1 (Homo sapiens, UniProt O14757).
T2 sequence (O14757 1-476): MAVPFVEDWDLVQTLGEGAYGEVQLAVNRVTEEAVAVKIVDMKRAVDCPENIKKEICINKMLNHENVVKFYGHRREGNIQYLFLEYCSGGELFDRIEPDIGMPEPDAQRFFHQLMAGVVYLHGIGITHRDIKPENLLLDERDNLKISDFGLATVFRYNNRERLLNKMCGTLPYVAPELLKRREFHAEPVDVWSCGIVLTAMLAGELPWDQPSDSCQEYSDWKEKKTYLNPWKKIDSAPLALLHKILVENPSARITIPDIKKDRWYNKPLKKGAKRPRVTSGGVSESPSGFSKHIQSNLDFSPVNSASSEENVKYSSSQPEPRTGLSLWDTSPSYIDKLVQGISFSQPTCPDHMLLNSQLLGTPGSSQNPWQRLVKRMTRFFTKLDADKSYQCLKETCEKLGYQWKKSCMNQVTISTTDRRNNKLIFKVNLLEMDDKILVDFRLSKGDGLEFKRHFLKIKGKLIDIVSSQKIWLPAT
As to the kind of experiment: Kinase profiling in vitro at 1 μM. Format: biochemical. The following applies: Chk1; compound at 1 μM; read-out: percentage of remaining activity of recombinant kinase. Here is the method:
as §1
(§3) In addition, the percentage of remaining activity of recombinant kinases Aurora kinases A and B and Checkpoint kinases 1 and 2 at the concentration of 1 μM of C1, C2 and C14 have been determined.
as §2

The target in another assay is Chk2 (Homo sapiens, UniProt O96017). As to the kind of experiment: Kinase profiling in vitro at 1 μM. Format: biochemical. Particulars: compound at 1 μM, read-out: percentage of remaining activity of recombinant kinase. Here is the method: as §1, §3, §2
Chk2, sequence (O96017 whole entry, species assumed): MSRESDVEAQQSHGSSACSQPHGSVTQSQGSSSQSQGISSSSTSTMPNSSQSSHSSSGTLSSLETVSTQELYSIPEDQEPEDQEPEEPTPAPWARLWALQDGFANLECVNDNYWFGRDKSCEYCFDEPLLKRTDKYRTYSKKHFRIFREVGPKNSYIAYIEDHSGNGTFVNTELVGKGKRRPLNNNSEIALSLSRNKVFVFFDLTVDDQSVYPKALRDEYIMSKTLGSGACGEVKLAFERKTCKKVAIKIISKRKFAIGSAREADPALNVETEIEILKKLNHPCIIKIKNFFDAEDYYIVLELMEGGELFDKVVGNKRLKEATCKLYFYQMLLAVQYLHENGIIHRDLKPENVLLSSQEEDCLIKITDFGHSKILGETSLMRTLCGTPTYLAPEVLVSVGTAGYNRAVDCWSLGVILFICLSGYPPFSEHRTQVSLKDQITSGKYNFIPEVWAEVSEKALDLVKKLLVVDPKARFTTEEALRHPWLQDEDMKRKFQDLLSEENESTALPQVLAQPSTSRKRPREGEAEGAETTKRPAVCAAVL
Assay [2] deals with T1, Aurora B. As to the kind of experiment: Kinase profiling in vitro at 1 μM. Format: biochemical. Particulars: compound at 1 μM, read-out: percentage of remaining activity of recombinant kinase. Here is the method: as §1, §3, §2
The target in another assay is T3, Aurora A (Homo sapiens, UniProt O14965).
T3 sequence (O14965 1-403): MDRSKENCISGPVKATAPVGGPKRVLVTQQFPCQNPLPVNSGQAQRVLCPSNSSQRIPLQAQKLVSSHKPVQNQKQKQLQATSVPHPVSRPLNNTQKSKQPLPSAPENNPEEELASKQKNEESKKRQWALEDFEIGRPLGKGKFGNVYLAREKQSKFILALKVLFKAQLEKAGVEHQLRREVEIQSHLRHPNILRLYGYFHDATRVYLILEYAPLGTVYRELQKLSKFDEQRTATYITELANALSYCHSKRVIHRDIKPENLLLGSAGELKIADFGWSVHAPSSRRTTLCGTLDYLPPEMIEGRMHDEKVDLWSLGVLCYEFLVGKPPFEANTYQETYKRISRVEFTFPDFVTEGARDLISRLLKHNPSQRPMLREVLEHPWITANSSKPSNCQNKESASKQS
As to the kind of experiment: Kinase profiling in vitro at 1 μM. Format: biochemical. Particulars: Aurora A; compound at 1 μM; read-out: percentage of remaining activity of recombinant kinase. Here is the method: Assays were run in vitro against recombinant kinases. The activity is reported for each kinase, grey histograms for CH21, white for C14 and gradation grey for C1. […] Therefore, C1 and C14 affect differently the Aurora kinase family.
as §1, §3, §2

T1 sequence (Q96GD4 whole entry): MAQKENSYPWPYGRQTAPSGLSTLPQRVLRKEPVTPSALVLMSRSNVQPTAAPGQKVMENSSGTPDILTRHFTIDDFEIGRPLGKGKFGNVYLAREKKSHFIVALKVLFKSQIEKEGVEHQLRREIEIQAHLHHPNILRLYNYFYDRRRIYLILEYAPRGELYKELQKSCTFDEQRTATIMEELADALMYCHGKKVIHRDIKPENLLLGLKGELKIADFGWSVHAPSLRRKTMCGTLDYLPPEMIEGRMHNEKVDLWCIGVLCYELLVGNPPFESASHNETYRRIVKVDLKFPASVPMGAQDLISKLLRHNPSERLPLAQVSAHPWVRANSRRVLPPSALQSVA

In the case of `COc1ccc2c(ccc3[nH]c4c(C)c[nH]c(=O)c4c32)c1` [Compound C2, reference compound], the “Known Targets (%)” value in the assay with 121 kinases was “Aurora A Aurora B Chk1 Chk2 Flt3”. Further, the “Aurora B inhibition in cellulo (Histone H3 phosphorylation, in words)” value on Aurora B [1] is reported as “mild inhibitory activity”. The IC50 in the assay on HeLa cells was 1160 ± 150 nM. Moreover, the remaining activity at 1 µM at CHK1 was 12%; at Chk2, 3%; on Aurora B [2] it was 24%; at Aurora A it was 11%.
